Our source for the IC50 values is patent US20140228377A1, “METHYLPIPERIDINE DERIVATIVE” (TAISHO PHARMACEUTICAL CO., LTD., priority 2011, published 2014).

For test [1], the target named is T1, human orexin-1 receptor (hOX1R) (Homo sapiens, UniProt O43613).
T1 construct: expressed in transfected cells; host or cells: Chinese hamster ovary (CHO) cells
T1 sequence (O43613 1-425): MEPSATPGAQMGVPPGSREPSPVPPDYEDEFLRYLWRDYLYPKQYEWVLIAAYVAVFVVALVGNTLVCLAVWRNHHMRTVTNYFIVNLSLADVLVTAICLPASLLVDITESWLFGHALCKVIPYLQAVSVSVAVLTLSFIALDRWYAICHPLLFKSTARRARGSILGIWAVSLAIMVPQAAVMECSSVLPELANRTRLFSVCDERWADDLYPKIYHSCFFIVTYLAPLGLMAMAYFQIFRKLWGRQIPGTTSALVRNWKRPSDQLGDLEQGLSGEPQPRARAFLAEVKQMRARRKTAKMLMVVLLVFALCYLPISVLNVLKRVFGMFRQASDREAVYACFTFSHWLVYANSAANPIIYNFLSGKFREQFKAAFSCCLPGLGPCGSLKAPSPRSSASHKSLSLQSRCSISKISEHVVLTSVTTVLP
Description: Orexin antagonistic activity assay (intracellular Ca2+, FDSS) in CHO cells expressing hOX1R. It counts as cell-based. The settings on record: CHO cells expressing hOX1R; ligand peptide 300 pM; Fluo-3 maximum fluorescence intensity; read-out: IC50 value OX1. As for the experimental part: (§1) The antagonistic activity of each test compound against human orexin-1 receptor (hOX1R) and orexin-2 receptor (hOX2R) was assayed by a modification of a method described in the literature (Toshikatsu Okumura et al., Biochemical and Biophysical Research Communications 280, 976-981, 2001). Chinese hamster ovary (CHO) cells forced to express hOX1R or hOX2R were inoculated at a density of 20,000 cells/well to a 96-well Black clear bottom plate (Nunc) and cultured at 37° C. for 16 hours under 5% CO2 conditions in a Ham's F-12 medium containing 0.1 mM MEM nonessential amino acids, 0.5 mg/ml G418, and 10% fetal bovine serum (all from Invitrogen Corp.). After removal of the medium, 100 μL of a buffer solution for assay (25 mM HEPES (Dojindo Laboratories), Hanks' balanced salt solution (Invitrogen Corp.), 0.1% bovine serum albumin, 2.5 mM probenecid, and 200 μg/ml Amaranth (all from Sigma-Aldrich Corp.), pH 7.4) containing 0.5 μM Fluo-3 AM ester (Dojindo Laboratories) was added to the cells, which were then incubated at 37° C. for 60 minutes under 5% CO2 conditions. After removal of the buffer solution for assay containing Fluo-3 AM ester, each test compound was dissolved at a concentration of 10 mM in dimethyl sulfoxide and diluted with a buffer solution for assay. Then, 150 μL of the solution was added to the cells, which were then incubated for 30 minutes.
(§2) A ligand peptide (Pyr-[…]NH2; Peptide Institute, Inc.) derived from human orexin-A by the substitution of two amino acids was diluted with a buffer solution for assay to final concentrations of 300 pM for hOX1R and 3 nM for hOX2R. Reaction was initiated by the addition of 50 μL of this ligand solution. The fluorescence intensity of the reaction was measured in each well every second for 3 minutes using Functional Drug Screening System (FDSS; manufactured by Hamamatsu Photonics K.K.), and the maximum fluorescence intensity was used as an index for intracellular Ca^2+ concentration to determine antagonistic activity. The antagonistic activity of the test compound was calculated with fluorescence intensity from a well supplemented with only a diluting buffer solution as 100% and fluorescence intensity from a well supplemented with a buffer solution free from the ligand and the compound as 0%. The 50% inhibitory concentration (IC50 value) was determined on the basis of fluorescence intensity derived from the test compound added at varying concentrations.

For test [2], the target named is T2, orexin-2 receptor (hOX2R) (Homo sapiens, UniProt O43614).
T2 construct: expressed in transfected cells; host or cells: Chinese hamster ovary (CHO) cells
T2 sequence (O43614 1-444): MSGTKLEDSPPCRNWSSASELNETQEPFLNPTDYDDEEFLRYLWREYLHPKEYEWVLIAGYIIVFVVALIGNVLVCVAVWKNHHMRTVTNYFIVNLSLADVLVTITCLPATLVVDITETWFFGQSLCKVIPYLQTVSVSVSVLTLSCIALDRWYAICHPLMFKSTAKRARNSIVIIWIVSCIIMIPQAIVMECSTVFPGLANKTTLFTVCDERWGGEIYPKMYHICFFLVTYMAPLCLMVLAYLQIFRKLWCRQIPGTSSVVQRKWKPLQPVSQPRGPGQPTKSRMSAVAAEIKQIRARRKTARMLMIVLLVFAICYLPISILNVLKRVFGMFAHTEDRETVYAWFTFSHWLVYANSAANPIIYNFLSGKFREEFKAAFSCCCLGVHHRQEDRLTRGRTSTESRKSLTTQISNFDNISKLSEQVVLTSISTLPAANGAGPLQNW
Description: Orexin antagonistic activity assay (intracellular Ca2+, FDSS) in CHO cells expressing hOX2R. The settings on record: CHO cells expressing hOX2R; ligand peptide 3 nM; Fluo-3 maximum fluorescence intensity; read-out: IC50 value OX2. Type of test: cell-based. Here is the method:
as §1, §2

Broadly, the IC50 is the concentration that gives 50% inhibition.

`C[C@@H]1CC[C@@H](c2nc3cc(F)c(F)cc3o2)CN1C(=O)c1ccc(F)cc1-n1nccn1` [Example 55, [(2R,5R)-5-(5,6-Difluoro-1,3-benzoxazol-2-yl)-2-methylpiperidin-1-yl][4-fluoro-2-(2H-1,2,3-triazol-2-yl)phenyl]methanone]: the half-inhibitory concentration (IC50) in test [1] turned out to be 207 nM; in test [2], 9.4 nM.

With `Cc1ccc(-n2nccn2)c(C(=O)N2C[C@H](c3nc4cc(F)ccc4o3)CC[C@H]2C)c1` (single isomer, unassigned) [Example 10, [(2R*,5R*)-5-(5-Fluoro-1,3-benzoxazol-2-yl)-2-methylpiperidin-1-yl][5-methyl-2-(2H-1,2,3-triazol-2-yl)phenyl]methanone], the figures for the IC50 in test [1] and in test [2] were 4.8 nM and 4.9 nM, respectively.

Take `C[C@@H]1CC[C@@H](c2nc3cc(F)ccc3o2)CN1C(=O)c1ccc(F)cc1-n1nccn1` [Example 34, [(2R,5R)-5-(5-Fluoro-1,3-benzoxazol-2-yl)-2-methylpiperidin-1-yl][4-fluoro-2-(2H-1,2,3-triazol-2-yl)phenyl]methanone]: the IC50 stood at 212 nM in test [1] and 8.4 nM in test [2].

In the case of `C[C@@H]1CC[C@@H](c2nc3cc(Cl)ccc3o2)CN1C(=O)c1ccc(F)cc1-n1nccn1` [Example 14, [(2R,5R)-5-(5-Chloro-1,3-benzoxazol-2-yl)-2-methylpiperidin-1-yl][4-fluoro-2-(2H-1,2,3-triazol-2-yl)phenyl]methanone], the IC50 stood at 41.6 nM in test [1] and 8.8 nM in test [2].

Regarding `C[C@@H]1CC[C@@H](c2nc3cc(Cl)ccc3o2)CN1C(=O)c1cc(Cl)ccc1-c1ncccn1` [Example 13, [(2R,5R)-5-(5-Chloro-1,3-benzoxazol-2-yl)-2-methylpiperidin-1-yl][5-chloro-2-(pyrimidin-2-yl)phenyl]methanone], the results for the IC50 in test [1] and in test [2] were 4.4 nM and 13 nM, respectively.

As to `C[C@@H]1CC[C@@H](c2nc3cc(Cl)ccc3o2)CN1C(=O)c1cccc(F)c1-c1ncccn1` [Example 18, [(2R,5R)-5-(5-Chloro-1,3-benzoxazol-2-yl)-2-methylpiperidin-1-yl][3-fluoro-2-(pyrimidin-2-yl)phenyl]methanone], the concentration for half-maximal inhibition (IC50) was determined as 301 nM in test [1] and 59.5 nM in test [2].

Turning to `C[C@@H]1CC[C@@H](c2nc3cc(Cl)ccc3o2)CN1C(=O)c1cc(C(F)(F)F)ccc1-n1nccn1` [Example 20, [(2R,5R)-5-(5-Chloro-1,3-benzoxazol-2-yl)-2-methylpiperidin-1-yl][2-(2H-1,2,3-triazol-2-yl)-5-(trifluoromethyl)phenyl]methanone], the IC50 in test [1] turned out to be 108 nM; in test [2] it was 55.7 nM.

As for `C[C@@H]1CC[C@@H](c2nc3cc(Cl)ccc3o2)CN1C(=O)c1ccc(Cl)cc1-n1nccn1` [Example 27, [(2R,5R)-5-(5-Chloro-1,3-benzoxazol-2-yl)-2-methylpiperidin-1-yl][4-chloro-2-(2H-1,2,3-triazol-2-yl)phenyl]methanone], the IC50 was found to be 1790 nM in test [1] and 187 nM in test [2].

As for `Cc1ccc(-n2nccn2)c(C(=O)N2C[C@H](c3nc4cc(Cl)cnc4o3)CC[C@H]2C)c1` [Example 71, [(2R,5R)-5-(6-Chloro[1,3]oxazolo[5,4-b]pyridin-2-yl)-2-methylpiperidin-1-yl][5-methyl-2-(2H-1,2,3-triazol-2-yl)phenyl]methanone], the results for the IC50 in test [1] and in test [2] were 106 nM and 6.1 nM, respectively.

`COc1ccc(-n2nccn2)c(C(=O)N2C[C@H](c3nc4cc(Cl)ccc4o3)CC[C@H]2C)c1` [Example 25, [(2R,5R)-5-(5-Chloro-1,3-benzoxazol-2-yl)-2-methylpiperidin-1-yl][5-methoxy-2-(2H-1,2,3-triazol-2-yl)phenyl]methanone]: the IC50 is 387 nM in test [1] and 66 nM in test [2].

As to `C[C@@H]1CC[C@@H](c2nc3cc(Cl)ccc3o2)CN1C(=O)c1cc(F)ccc1-c1ncc(F)cn1` [Example 23, [(2R,5R)-5-(5-Chloro-1,3-benzoxazol-2-yl)-2-methylpiperidin-1-yl][5-fluoro-2-(5-fluoropyrimidin-2-yl)phenyl]methanone], the IC50 in test [1] stood at 168 nM; in test [2], 22.5 nM.

In the case of `C[C@@H]1CC[C@@H](c2nc3cc(Cl)ccc3o2)CN1C(=O)c1cccc(F)c1-n1nccn1` [Example 15, [(2R,5R)-5-(5-Chloro-1,3-benzoxazol-2-yl)-2-methylpiperidin-1-yl][3-fluoro-2-(2H-1,2,3-triazol-2-yl)phenyl]methanone], the IC50 in test [1] came to 142 nM; in test [2] it was 9.7 nM.

Regarding `Cc1ccc(-c2ncccn2)c(C(=O)N2C[C@H](c3nc4cc(F)cc(F)c4o3)CC[C@H]2C)c1` [Example 63, [(2R,5R)-5-(5,7-Difluoro-1,3-benzoxazol-2-yl)-2-methylpiperidin-1-yl][5-methyl-2-(pyrimidin-2-yl)phenyl]methanone], the IC50 in test [1] stood at 29.1 nM; in test [2], 5.5 nM.

For the molecule `Cc1ccc(-c2ncccn2)c(C(=O)N2C[C@H](c3nc4cc(C#N)ccc4o3)CC[C@H]2C)c1` [Example 57, 2-{(3R,6R)-6-Methyl-1-[5-methyl-2-(pyrimidin-2-yl)benzoyl]piperidin-3-yl}-1,3-benzoxazole-5-carbonitrile], the IC50 is 561 nM in test [1] and 20.1 nM in test [2].

`Cc1ccc(-c2ncccn2)c(C(=O)N2C[C@H](c3nc4cc(F)ccc4o3)CC[C@H]2C)c1` (single isomer, unassigned) [Example 8, [(2R*,5R*)-5-(5-Fluoro-1,3-benzoxazol-2-yl)-2-methylpiperidin-1-yl][5-methyl-2-(pyrimidin-2-yl)phenyl]methanone]: the figures for the IC50 in test [1] and in test [2] were 0.7 nM and 2.1 nM, respectively.

`C[C@@H]1CC[C@@H](c2nc3cc(F)c(F)cc3o2)CN1C(=O)c1cc(Cl)ccc1-c1ncccn1` [Example 53, [5-Chloro-2-(pyrimidin-2-yl)phenyl][(2R,5R)-5-(5,6-difluoro-1,3-benzoxazol-2-yl)-2-methylpiperidin-1-yl]methanone]: the IC50 was found to be 56.3 nM in test [1] and 13.2 nM in test [2].

As for `Cc1ccc(-n2nccn2)c(C(=O)N2C[C@H](c3nc4c(F)cc(F)cc4o3)CC[C@H]2C)c1` [Example 60, [(2R,5R)-5-(4,6-Difluoro-1,3-benzoxazol-2-yl)-2-methylpiperidin-1-yl][5-methyl-2-(2H-1,2,3-triazol-2-yl)phenyl]methanone], the IC50 in test [1] is 93.3 nM; in test [2] it was 45.7 nM.

As to `C[C@@H]1CC[C@@H](c2nc3cc(Cl)ccc3o2)CN1C(=O)c1cc(F)ccc1-c1ncccn1` (single isomer, unassigned) [Example 6, [(2R*,5R*)-5-(5-Chloro-1,3-benzoxazol-2-yl)-2-methylpiperidin-1-yl][5-fluoro-2-(pyrimidin-2-yl)phenyl]methanone], the values for the IC50 in test [1] and in test [2] were 54.5 nM and 2.9 nM, respectively.

`Cc1ccc(-c2ncccn2)c(C(=O)N2C[C@H](c3nc4ccc(F)c(F)c4o3)CC[C@H]2C)c1` [Example 59, [(2R,5R)-5-(6,7-Difluoro-1,3-benzoxazol-2-yl)-2-methylpiperidin-1-yl][5-methyl-2-(pyrimidin-2-yl)phenyl]methanone]: the IC50 stood at 4.4 nM in test [1] and 9.2 nM in test [2].
